Values of other authors in patent publication US20100113580A1, “COMBINATION THERAPIES FOR THE TREATMENT OF OBESITY” (priority 2008, published 2010).

Details: literature studies of single weight loss drugs
For CC(C)CC(N(C)C)C1(c2ccc(Cl)cc2)CCC1 (stereo not drawn) [sibutramine], the “weight loss of body weight for drug compared with placebo” value (“weight loss … compared with placebo” below) is given as “about 5%”.
In the case of CCN[C@@H](C)Cc1cccc(C(F)(F)F)c1 [dexfenfluramine], the “weight loss … compared with placebo” value is given as “about 5%”.
In the case of CCCCCCCCCCC[C@@H](C[C@@H]1OC(=O)[C@H]1CCCCCC)OC(=O)[C@H](CC(C)C)NC=O [orlistat], the “weight loss … compared with placebo” value is given as “about 5%”.
